Measurements: patent US5480870A, “Tumor growth-inhibiting somatostatin analogues, pharmaceutical compositions containing them and process for preparing same” (Biosignal Kutato-Fejlesztokft, priority 1991, dated 1996)

Experiments:
[1] = test system: rat hypophysis (GH release); assay: Assay of the growth hormone (GH): GHRH-elicited GH release, superfusion method; type: cell-based; conditions: percentage of decrease (-) or increase (+) in GH amount released by GHRH
Protocol: The release or inhibition, respectively, of the release of GH were measured on rat hypophysis by using the superfusion method [Vigh et al.: Peptides 5, 241 (1984)]. As control, the GH amount was considered which was released by the GH releasing hormone (GHRH) given in the same dose as the sample. The activity of the somatostatin analogue was expressed as the percentage of decrease or increase, respectively, in the GH amount released by GHRH (Table II).

[2] = test system: MCF 7: tumour cell line of human breast origin; assay: Assay of the inhibition of cell division, MCF 7; type: cell-based
Protocol: (§1) The incorporation of [^3 H]-thymidine to tumour cells of various origin and measurement of the cell count were carried out according to the method of Keri et al. [Tumor Biology 9, 315 (1988)]. The biological activity of the analogues was expressed as the percentage of inhibition of the labelled thymidine incorporation or increase in the count of untreated cells used as control (Table III).

[3] = test system: HT 29: tumour cell line of human colon origin; assay: Assay of the inhibition of cell division, HT 29; type: cell-based
Protocol: as §1

[4] = test system: tyrosine kinase (HT 29 cells); assay: Assay of the tyrosine kinase activity, HT 29 cells; type: cell-based, human
Protocol: The tyrosine kinase activity was also determined according to the method of Keri et al. [Tumor Biology 9, 315 (1988)]. The activity of the analogues was characterized on the basis of their inhibitory effect in comparison to the incorporation of ^32 p isotope to untreated cells used as control (Table IV).

| Substance | Change of GH release [1] | Inhibition (%) of cell division ([2]; MCF 7, dose 40 μg) | Inhibition (%) of cell division ([3]; HT 29, dose 10 μg) | Inhibition (%) of cell division ([2]; MCF 7, dose 20 μg) | Inhibition (%) of tyrosine kinase activity ([4]; HT 29, dose 10 μg) | Inhibition (%) of tyrosine kinase activity ([4]; HT 29, dose 30 μg) | Inhibition (%) of cell division ([3]; HT 29, dose 20 μg) | Inhibition (%) of tyrosine kinase activity ([4]; HT 29, dose 1 μg, 32P incorporation vs untreated cells) |
| --- | --- | --- | --- | --- | --- | --- | --- | --- |
| D-Phe-Tyr-Tyr-Aa-Lys-Val-Phe-Trp-NH2 [Example 6] | +26% | 48% | – | – | – | – | – | – |
| Ac-Sar-Ala-Tyr-Tyr-Aa-Lys-Val-Phe-Trp-NH2 [Example 7] | -20% | – | 28% | 24% | 17% | 23% | – | – |
| D-Phe-Cys-Tyr-D-Trp-Lys-Val-Cys-Thr-NH2 [Example 2] | -93% | – | – | 45% | 22% | – | 27% | 35% |
